Assay [1] relates to SW837. As to the kind of experiment: relative IC50 of cell viability (CellTiter-Glo); higher = less potent. On the procedure: (§1)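 CellTiter-Glo proliferation assay in KRAS G12C mutant NCI-H2122 (72 h), SW837 (144 h) and NCI-H358 cells in 384-well plates. Monotherapy dose response was fitted with a four-parameter curve after normalisation to DMSO controls (% of control, PoC). IC50 is the relative IC50, averaged over replicates. Bottom is the fitted lower plateau in %PoC; Max.Conc. is the top dose tested.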
In general terms: Cellular ATP, detected with luciferase, serves as a proxy for viable cell number.

The test system of assay [2] is NCI-H2122. Briefly: fitted bottom plateau of viability curve, % of DMSO control; higher = less maximal inhibition; extreme values may be limits of the assay. The method in brief:
(§2)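 Compounds were dispensed acoustically as dose series, one compound per well, 24 h after seeding cells in 60 µl per well of 384-well plates (800 cells/well for NCI-H2122, 500 cells/well for SW837 and NCI-H358). Plates were incubated 144 h for SW837 and 72 h for the other two lines, then shaken 15 min and read for CellTiter-Glo luminescence on an EnVision reader. Signals were converted to percent of DMSO controls. The relative IC50, averaged over replicates, and the lower plateau come from fitting a four-parameter nonlinear model.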

Assay [3] relates to SW837. The description is as above. The method in brief: as §2
For assay [4], the system named is NCI-H2122. As to the kind of experiment: relative IC50 of cell viability (CellTiter-Glo); higher = less potent. The protocol:
as §1

As to `O=C(/C=C\n1cnc(-c2cc(C(F)(F)F)cc(C(F)(F)F)c2)n1)NNc1cnccn1` [KPT-330] (top concentration tested 50000 nM), the “relative IC50 of cell viability” value in the assay on SW837 [1] worked out at 7020 nM. Moreover, the “fitted bottom plateau of viability curve” value in the assay with NCI-H2122 [2] is 91.8%; in the assay on SW837 [3], 20.6%.
`CN[C@H]1CN(c2ccc3c(=O)c(C(=O)O)cn(-c4nccs4)c3n2)C[C@@H]1OC` [Vosaroxin] (top concentration tested 2500 nM): the “relative IC50 of cell viability” value in the assay on NCI-H2122 [4] is 778 nM; in the assay with SW837 [1] it was 2310 nM. Moreover, the results for the “fitted bottom plateau of viability curve” value in the assay on NCI-H2122 [2] and with SW837 [3] were 34.3% and 0%, respectively.
The corresponding values for `C/C=C1\NC(=O)[C@H]2CSSCC/C=C/[C@H](CC(=O)N[C@H](C(C)C)C(=O)N2)OC(=O)[C@H](C(C)C)NC1=O` [Romidepsin] (top concentration tested 10000 nM) are 5.65 nM, 76.4 nM, 0.385% and 0.0763%.
Taken in the same sequence, the figures for `COc1cc(Nc2ncc3c(n2)-c2ccc(Cl)cc2C(c2c(F)cccc2OC)=NC3)ccc1C(=O)O` [MLN8237] (top concentration tested 999.95 nM) were 75.9 nM, 943 nM, 21.5% and 13.6%.
Taken in the same sequence, the figures for `Nc1ccn([C@@H]2O[C@H](CO)[C@@H](O)[C@@H]2O)c(=O)n1` [Cytarabin] (top concentration tested 999.93 nM) were 238 nM, 949 nM, 32.3% and 0%.
Take `CN1CC[C@H](c2c(O)cc(O)c3c(=O)cc(-c4ccccc4Cl)oc23)[C@H](O)C1` [Flavopiridol] (top concentration tested 500.11 nM): the “relative IC50 of cell viability” value in the assay with NCI-H2122 [4] came out at 149 nM; with SW837 [1], 331 nM. The “fitted bottom plateau of viability curve” value with NCI-H2122 [2] came to 3.96%; in the assay on SW837 [3], 0%.
The corresponding values for `Cn1c(=O)n(-c2ccc(C(C)(C)C#N)cc2)c2c3cc(-c4cnc5ccccc5c4)ccc3ncc21` [NVP-BEZ235] (top concentration tested 999.9 nM) are 58.5 nM, 153 nM, 9.96% and 33.2%.
The corresponding values for `NC(=O)c1cnc(N[C@@H]2CCCC[C@@H]2N)nc1Nc1cccc(-n2nccn2)c1` (top concentration tested 10000 nM) are 3860 nM, 2110 nM, 39.3% and 30.9%.
The corresponding values for `CC[C@]1(O)C[C@@H]2CN(CCc3c([nH]c4ccccc34)[C@@](C(=O)OC)(c3cc4c(cc3OC)N(C)[C@H]3[C@@](O)(C(=O)OC)[C@H](OC(C)=O)[C@]5(CC)C=CCN6CC[C@]43[C@@H]65)C2)C1` [Vinblastine] (top concentration tested 99.992 nM) are 4.34 nM, 80.2 nM, 4.54% and 0%.
For the compound `CC(=O)O[C@@]12CO[C@@H]1C[C@H](O)[C@@]1(C)C(=O)[C@H](O)C3=C(C)[C@@H](OC(=O)[C@H](O)[C@@H](NC(=O)OC(C)(C)C)c4ccccc4)C[C@@](O)([C@@H](OC(=O)c4ccccc4)[C@H]21)C3(C)C` [Docetaxel] (top concentration tested 100.01 nM), the “relative IC50 of cell viability” value in the assay on NCI-H2122 [4] was determined as 1.68 nM; with SW837 [1] it was 2.73 nM. Further, the “fitted bottom plateau of viability curve” value with NCI-H2122 [2] was determined as 4.04%; in the assay on SW837 [3] it was 22.5%.
The corresponding values for `CC(C)c1cc(-c2n[nH]c(=O)n2-c2ccc3c(ccn3C)c2)c(O)cc1O` [Ganetespib] (top concentration tested 99.888 nM) are 11.2 nM, 87.1 nM, 8.33% and 0%.
Take `Cc1[nH]c(/C=C2\C(=O)Nc3ccc(S(=O)(=O)Cc4c(Cl)cccc4Cl)cc32)c(C)c1C(=O)N1CCC[C@@H]1CN1CCCC1` (top concentration tested 10000 nM): the “relative IC50 of cell viability” value with NCI-H2122 [4] amounted to 3030 nM; in the assay with SW837 [1], 2390 nM. The “fitted bottom plateau of viability curve” value was found to be 0.553% in the assay with NCI-H2122 [2] and 1.78% in the assay on SW837 [3].
Taken in the same sequence, the figures for `COc1cc([C@@H]2c3cc4c(cc3[C@@H](O[C@@H]3O[C@@H]5CO[C@@H](C)O[C@H]5[C@H](O)[C@H]3O)[C@H]3COC(=O)[C@H]23)OCO4)cc(OC)c1O` [Etoposide] (top concentration tested 10000 nM) were 995 nM, 1340 nM, 51.5% and 14.5%.
As for `CNCc1ccc(-c2cc(-c3nc(-c4ccc(S(=O)(=O)C(C)C)cc4)cnc3N)on2)cc1` [VE-822/VX-970] (top concentration tested 9999.9 nM), the results for the “relative IC50 of cell viability” value in the assay with NCI-H2122 [4] and with SW837 [1] were 278 nM and 807 nM, respectively. Also, the “fitted bottom plateau of viability curve” value in the assay with NCI-H2122 [2] was determined as 0.375%; in the assay on SW837 [3] it was 2.47%.
Taken in the same sequence, the figures for `CC(=O)O[C@H]1C(=O)[C@@]2(C)[C@H]([C@H](OC(=O)c3ccccc3)[C@]3(O)C[C@H](OC(=O)[C@H](O)[C@@H](NC(=O)c4ccccc4)c4ccccc4)C(C)=C1C3(C)C)[C@]1(OC(C)=O)CO[C@@H]1C[C@@H]2O` [Paclitaxel] (top concentration tested 100.01 nM) were 3.22 nM, 12.5 nM, 4.65% and 25.6%.
Consider `COC(=O)c1ccc2c(c1)NC(=O)/C2=C(\Nc1ccc(N(C)C(=O)CN2CCN(C)CC2)cc1)c1ccccc1` [Nintedanib] (top concentration tested 10000 nM), for which the results for the “relative IC50 of cell viability” value in the assay on NCI-H2122 [4] and in the assay with SW837 [1] were 5990 nM and 2240 nM, respectively. Moreover, the figures for the “fitted bottom plateau of viability curve” value with NCI-H2122 [2] and in the assay with SW837 [3] were 50.6% and 8.69%, respectively.
Regarding `CO[C@H]1CC[C@H](n2c([C@@H]3CCCC(=O)N3c3ccc(F)c(F)c3)nc3cc(-c4c(C)noc4C)ccc32)CC1` [CCS1477] (top concentration tested 10000 nM), the “relative IC50 of cell viability” value in the assay with SW837 [1] is 1900 nM. Moreover, the “fitted bottom plateau of viability curve” value in the assay on NCI-H2122 [2] was 77.8%; with SW837 [3] it was 36.9%.
Turning to `CC1(C)CCC(CN2CCN(c3ccc(C(=O)NS(=O)(=O)c4ccc(NCC5CCOCC5)c([N+](=O)[O-])c4)c(Oc4cnc5[nH]ccc5c4)c3)CC2)=C(c2ccc(Cl)cc2)C1` [ABT-199] (top concentration tested 10000 nM), in the assay with NCI-H2122 [4], the “relative IC50 of cell viability” value is 8090 nM. Also, the “fitted bottom plateau of viability curve” value in the assay on NCI-H2122 [2] was 65.6%; in the assay on SW837 [3], 95.3%.
Taken in the same sequence, the figures for `Nc1ncn([C@H]2C[C@H](O)[C@@H](CO)O2)c(=O)n1` [Decitabine] (top concentration tested 10000 nM) were 1360 nM, 57.7% and 54%.
Taken in the same sequence, the figures for `CC(C)C[C@@H](C(=O)N[C@H](C(=O)OC1CCCC1)c1ccccc1)[C@H](O)C(=O)NO` [Tosedostat] (top concentration tested 9999.9 nM) were 776 nM, 51.2% and 92.2%.
The corresponding values for `COc1cc(OC)c(/C=C/S(=O)(=O)Cc2ccc(OC)c(NCC(=O)O)c2)c(OC)c1` [Rigosertib] (top concentration tested 1000.1 nM) are 123 nM, 5.86% and 58.2%.
For the compound `Nc1nc2[nH]cc(CCc3ccc(C(=O)N[C@@H](CCC(=O)O)C(=O)O)cc3)c2c(=O)[nH]1` [Pemetrexed] (top concentration tested 10000 nM), the “relative IC50 of cell viability” value in the assay with NCI-H2122 [4] worked out at 21.4 nM. Besides, the “fitted bottom plateau of viability curve” value was determined as 43.3% in the assay on NCI-H2122 [2] and 90.7% in the assay with SW837 [3].
Taken in the same sequence, the figures for `Cc1cn(-c2cc(NC(=O)c3ccc(C)c(Nc4nccc(-c5cccnc5)n4)c3)cc(C(F)(F)F)c2)cn1` [Nilotinib] (top concentration tested 10000 nM) were 2510 nM, 14% and 68.8%.
The corresponding values for `N[C@@H](Cc1ccc(N(CCCl)CCCl)cc1)C(=O)O` [Melphalan] (top concentration tested 10000 nM) are 2140 nM, 46.6% and 52.1%.
The corresponding values for `COc1cc(OC2CCN(C)CC2)ccc1Nc1ncc2c(n1)n(C1CCCC1)c(=O)n2C` [AZ3146] (top concentration tested 10000 nM) are 6060 nM, 39.4% and 57.4%.
On to `COc1ccc2nc3ccc(OC)cc3c(SCCCN)c2c1` (top concentration tested 10000 nM), for which the “relative IC50 of cell viability” value with NCI-H2122 [4] came to 9650 nM. Further, the “fitted bottom plateau of viability curve” value came out at 59% in the assay on NCI-H2122 [2] and 84.2% in the assay on SW837 [3].

Source of the values: the supplement of paper PMC11424490.
